# Experimental data published in paper PMC8301025 (Biology, 2021).
# System: T1, CLas GMPS
# T1 construct: gene guaA
# Settings: read-out: (NH4)2SO4, Km mM; saturating XMP and ATP, 20 mM MgCl2, pH 8.5; salt printed as (NH4)2SO4 in table, NH4Cl in methods; text prints 10.9 ± 1.9 mM
compound,measurement,value
N [NH4+],Km,10.9 ± 1.3 mM
